Measured values published in patent publication US12398141B2 (SHANGHAI SYNERGY PHARMACEUTICAL SCIENCES CO., LTD, priority 2019, dated 2025).

Columns and labels:
Sprague-Dawley (SD) mice = assay: Concanavalin-induced paw swelling in mice; format: in vivo; details: 10 mg/kg intragastric
Description: (§1) The inhibiting effects of compounds H13, H14, H09, H11 and compounds of Example 12 on paw swelling in […] were determined after intragastric administration by using Sprague-Dawley (SD) […] (ShanghaiSippr-BK laboratory animal Co. Ltd.), aged 6-7 weeks and weighing 160-180 g as test animals. The anti-inflammatory pharmacodynamics characteristic of the compounds of the invention was discussed.
A certain amount of compounds were taken and dissolved in 4% Tween 80/0.5% hydroxy propyl methyl cellulose solution.
Mice were given compounds H01, H07, H11, H12, H14, H15, H22, H25, H29, H30, H33, H39, and H44 and the positive drug indomethacin (Diamond Reagent Co., Ltd., China) by intragastric administration at the dosages shown in the table below and 0.1 ml 0.03% (W/V) concanavalin was injected subcutaneously into the plantar 0.5 h later. A paw volume was measured with a paw swelling meter before modeling and 1 h, 2 h, 4 h and 6 h after modeling. According to the formula: paw swelling rate=(paw volume after administration−basic paw volume)/basic paw volume×100, the inhibiting effect of the compounds on paw volume was calculated. The basic paw volume was a paw volume before administration.

male ICR mice = assay: Carrageenan-induced paw swelling in mice; format: in vivo; details: 10 mg/kg intragastric
Description: as §1, with “H01, H07, H11, H12,” for “H13,”, “H15, H22, H25, H29, H30, H33, H39” for “H09, H11”, “H44” for “compounds of Example 12”, “male ICR” for “Sprague-Dawley (SD)”, “8” for “6-7”, “22-24” for “160-180”
A certain amount of compounds were taken and dissolved in 4% Tween 80/0.5% hydroxy propyl methyl cellulose solution. A volume of intragastric administration in mice was 10 ml/kg.
Mice were given 10 mg/kg compounds H01, H07, H11, H12, H14, H15, H22, H25, H29, H30, H33, H39, and H44 and the positive drug indomethacin (Diamond Reagent Co., Ltd., China) by intragastric administration at the dosages shown in the table below and 20 μL 1% (W/V) carrageenan was injected subcutaneously into the plantar 0.5 h later. A paw volume was measured with a paw swelling meter before and at different time points after modeling (0.5 h, 1 h and 2 h). According to the formula: paw swelling rate=(paw volume after administration−basic paw volume)/basic paw volume×100, the inhibiting effect of the compounds on paw volume was calculated. The basic paw volume was a paw volume before administration.

Blast T cell = assay: Cell proliferation test of IL-2 stimulated Blast T cell; format: cell-based; details: Homo sapiens; IL-2 stimulated Blast T cell proliferation, 72 hours
Description: Inhibiting test of the compounds of the invention on proliferation of Blast T cell and TF-1 cell (American type culture collection) was carried out by the following method. The tested compounds […], and […] were dissolved in dimethyl sulfoxide from 0.0006 to 10 μM in quadruplicate dilutions. […] 10 μg/ml […] was added to stimulate and obtain cells with a density of 2×10^6/mL, which were incubated for 3 days. The cells were washed with phosphate buffer for three times and IL-2 (100 u/ml) was added to stimulate for 1 week. Cells were suspended using the culture medium and seeded at 5×10^4 cell/well density into 96-well plates, and incubated for 1 h with the prepared test compound or DMSO control at various concentrations from 0.0006 to 10 μM diluted by 4-fold volume. After incubation with 20 u/ml of IL-2 (50 μl/well without reference well) for 72 hours, Celltiter Glo® reagent (Promega, G7571) was added and mixed for 5 minutes, then incubated for 30 minutes at room temperature. The luminescence value was read on SpectraMax L (Molecular Device). […] The IC50 values of the corresponding compounds were then obtained by fitting by using the XLFit fitting tool in excel.

JAK1 = JAK1 (Homo sapiens (Human), UniProt P23458); assay: JAK1 LANCE Ultra kinase assay; format: biochemical; details: for IC50: 38 uM ATP; for JAK2/JAK1: ratio of IC50 JAK2 to IC50 JAK1
Sequence of JAK1 (P23458 whole entry): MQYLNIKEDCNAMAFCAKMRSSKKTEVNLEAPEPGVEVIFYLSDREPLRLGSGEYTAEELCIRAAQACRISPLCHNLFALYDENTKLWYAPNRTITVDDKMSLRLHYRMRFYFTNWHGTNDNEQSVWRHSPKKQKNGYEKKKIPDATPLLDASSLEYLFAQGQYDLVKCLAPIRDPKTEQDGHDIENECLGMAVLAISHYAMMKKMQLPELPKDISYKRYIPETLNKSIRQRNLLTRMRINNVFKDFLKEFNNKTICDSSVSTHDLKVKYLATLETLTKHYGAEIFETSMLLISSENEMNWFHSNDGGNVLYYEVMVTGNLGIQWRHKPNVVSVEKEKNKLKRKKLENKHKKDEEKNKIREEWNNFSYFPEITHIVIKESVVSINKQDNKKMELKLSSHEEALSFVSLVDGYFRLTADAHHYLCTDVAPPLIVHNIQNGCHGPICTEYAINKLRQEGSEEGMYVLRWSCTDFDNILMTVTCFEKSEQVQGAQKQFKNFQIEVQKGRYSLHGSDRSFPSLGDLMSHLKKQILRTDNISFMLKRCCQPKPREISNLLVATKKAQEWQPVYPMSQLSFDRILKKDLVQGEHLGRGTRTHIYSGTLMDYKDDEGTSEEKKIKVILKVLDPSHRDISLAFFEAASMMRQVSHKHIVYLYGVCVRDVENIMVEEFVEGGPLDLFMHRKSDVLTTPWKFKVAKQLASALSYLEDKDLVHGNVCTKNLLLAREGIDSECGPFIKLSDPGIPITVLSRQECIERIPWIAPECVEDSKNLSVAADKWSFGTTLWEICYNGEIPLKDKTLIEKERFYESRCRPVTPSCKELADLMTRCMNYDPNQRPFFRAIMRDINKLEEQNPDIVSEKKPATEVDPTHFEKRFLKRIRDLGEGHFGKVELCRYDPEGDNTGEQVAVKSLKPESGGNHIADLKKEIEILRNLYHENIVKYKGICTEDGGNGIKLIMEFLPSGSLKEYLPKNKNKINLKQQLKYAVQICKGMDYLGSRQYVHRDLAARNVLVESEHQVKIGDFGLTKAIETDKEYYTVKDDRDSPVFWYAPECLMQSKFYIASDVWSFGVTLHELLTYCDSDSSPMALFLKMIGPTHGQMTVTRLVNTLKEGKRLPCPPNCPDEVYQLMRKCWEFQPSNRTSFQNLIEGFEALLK
Procedure, shortened: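 JAK1 preincubated with compound 10 min at room temperature, then ULight-JAK-1 peptide/ATP added for 90 min at room temperature; stopped with EDTA, Eu-W1024 anti-phosphotyrosine TR-FRET read after 60 min. Inhibition normalised to DMSO and blank wells; IC50 from curve fit.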

JAK2 = JAK2 (Homo sapiens (Human), UniProt O60674); assay: JAK2 LANCE Ultra kinase assay; format: biochemical; details: 12 uM ATP
Sequence of JAK2 (O60674 whole entry): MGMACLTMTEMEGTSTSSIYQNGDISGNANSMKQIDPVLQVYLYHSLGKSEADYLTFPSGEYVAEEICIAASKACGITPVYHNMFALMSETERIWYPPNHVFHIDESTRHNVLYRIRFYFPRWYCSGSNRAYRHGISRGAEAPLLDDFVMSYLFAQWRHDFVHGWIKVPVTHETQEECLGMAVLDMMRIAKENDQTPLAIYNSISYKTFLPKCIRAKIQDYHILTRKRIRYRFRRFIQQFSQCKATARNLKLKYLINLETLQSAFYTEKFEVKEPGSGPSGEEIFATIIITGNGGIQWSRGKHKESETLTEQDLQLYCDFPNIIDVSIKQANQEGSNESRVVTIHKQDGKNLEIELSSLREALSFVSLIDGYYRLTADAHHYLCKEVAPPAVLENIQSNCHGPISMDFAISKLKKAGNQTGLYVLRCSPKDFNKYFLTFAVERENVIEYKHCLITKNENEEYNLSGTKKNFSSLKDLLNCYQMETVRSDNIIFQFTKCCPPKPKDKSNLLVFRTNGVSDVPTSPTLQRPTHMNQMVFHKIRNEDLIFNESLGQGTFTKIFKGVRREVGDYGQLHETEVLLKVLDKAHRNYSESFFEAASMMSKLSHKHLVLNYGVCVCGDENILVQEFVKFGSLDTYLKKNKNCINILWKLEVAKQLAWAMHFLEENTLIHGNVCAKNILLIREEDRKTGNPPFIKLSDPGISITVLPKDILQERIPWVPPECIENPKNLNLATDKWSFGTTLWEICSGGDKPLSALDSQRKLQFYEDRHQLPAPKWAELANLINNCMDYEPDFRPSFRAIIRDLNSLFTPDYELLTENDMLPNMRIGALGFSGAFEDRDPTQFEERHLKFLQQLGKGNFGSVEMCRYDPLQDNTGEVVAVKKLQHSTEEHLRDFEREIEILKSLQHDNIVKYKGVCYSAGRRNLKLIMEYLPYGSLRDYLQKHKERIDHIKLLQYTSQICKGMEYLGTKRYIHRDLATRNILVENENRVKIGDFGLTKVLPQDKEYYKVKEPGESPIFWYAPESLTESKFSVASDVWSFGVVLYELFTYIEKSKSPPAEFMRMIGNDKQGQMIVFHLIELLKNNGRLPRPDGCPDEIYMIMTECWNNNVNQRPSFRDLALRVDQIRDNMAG

JAK3 = JAK3 (Homo sapiens (Human), UniProt P52333); assay: JAK3 LANCE Ultra kinase assay; format: biochemical; details: 4 uM ATP
Sequence of JAK3 (P52333 whole entry): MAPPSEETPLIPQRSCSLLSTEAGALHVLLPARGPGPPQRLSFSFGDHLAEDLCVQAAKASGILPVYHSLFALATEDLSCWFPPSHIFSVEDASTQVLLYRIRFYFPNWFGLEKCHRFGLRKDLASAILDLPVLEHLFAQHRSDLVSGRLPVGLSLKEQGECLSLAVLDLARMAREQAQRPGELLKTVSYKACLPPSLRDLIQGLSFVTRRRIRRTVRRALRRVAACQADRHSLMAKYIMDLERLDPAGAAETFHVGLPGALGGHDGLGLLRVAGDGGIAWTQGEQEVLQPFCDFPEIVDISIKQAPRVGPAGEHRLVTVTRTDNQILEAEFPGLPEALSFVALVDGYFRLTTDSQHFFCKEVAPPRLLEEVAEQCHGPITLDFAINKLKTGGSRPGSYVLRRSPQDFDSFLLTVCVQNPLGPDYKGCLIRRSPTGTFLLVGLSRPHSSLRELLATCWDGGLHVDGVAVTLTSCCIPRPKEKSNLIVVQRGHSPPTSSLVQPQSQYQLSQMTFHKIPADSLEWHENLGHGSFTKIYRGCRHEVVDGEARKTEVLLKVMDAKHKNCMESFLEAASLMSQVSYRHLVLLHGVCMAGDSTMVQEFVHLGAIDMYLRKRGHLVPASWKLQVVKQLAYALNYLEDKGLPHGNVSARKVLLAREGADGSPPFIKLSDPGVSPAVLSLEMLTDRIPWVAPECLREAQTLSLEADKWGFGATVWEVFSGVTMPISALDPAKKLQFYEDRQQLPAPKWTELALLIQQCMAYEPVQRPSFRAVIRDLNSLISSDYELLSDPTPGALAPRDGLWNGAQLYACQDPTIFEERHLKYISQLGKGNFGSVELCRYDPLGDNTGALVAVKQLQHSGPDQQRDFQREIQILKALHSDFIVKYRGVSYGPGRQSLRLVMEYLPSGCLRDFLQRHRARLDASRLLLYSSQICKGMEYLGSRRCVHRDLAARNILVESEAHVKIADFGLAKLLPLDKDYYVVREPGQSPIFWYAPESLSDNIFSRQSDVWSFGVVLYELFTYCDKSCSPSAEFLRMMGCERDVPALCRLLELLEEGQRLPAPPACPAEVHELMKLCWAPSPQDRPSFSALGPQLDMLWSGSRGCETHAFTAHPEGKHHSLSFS

TF-1 cell = TF-1 cell proliferation test; format: cell-based; details: Homo sapiens, 72 h
Description: Inhibiting test of the compounds of the invention on proliferation of Blast T cell and TF-1 cell (American type culture collection) was carried out by the following method. The tested compounds […], and […] were dissolved in dimethyl sulfoxide from 0.0006 to 10 μM in quadruplicate dilutions. […] The luminescence value was read on Microplate Reader (Molecular Device). […] The IC50 values of the corresponding compounds were then obtained by fitting by using the XLFit fitting tool in excel.

| IC50 (JAK1) [nM] | JAK2/JAK1 (JAK1) | IC50 (JAK2) [nM] | IC50 (JAK3) [nM] | Structure (SMILES) | Paw swelling rate_1 h (%) (Sprague-Dawley (SD) mice; 1 h) | Paw swelling rate_2 h (%) (Sprague-Dawley (SD) mice; 2 h) | Paw swelling rate_4 h (%) (Sprague-Dawley (SD) mice; 4 h) | Paw swelling rate_6 h (%) (Sprague-Dawley (SD) mice; 6 h) | Paw swelling_0.5 h (%) (male ICR mice; 0.5 h) | Paw swelling rate_1 h (%) (male ICR mice; 1 h) | Paw swelling rate_2 h (%) (male ICR mice; 2 h) | IC50 (Blast T cell) [µM] | IC50 (TF-1 cell) [µM] |
| --- | --- | --- | --- | --- | --- | --- | --- | --- | --- | --- | --- | --- | --- |
|  |  |  |  | COc1ccc2c(c1)c(CC(=O)O)c(C)n2C(=O)c1ccc(Cl)cc1 [Indomethacin, reference compound] | 34.00 ± 2.30 | 44.80 ± 3.00 | 42.70 ± 2.00 | 36.20 ± 2.00 | 32.91 ± 3.22 | 42.21 ± 4.64 | 55.10 ± 2.21 |  |  |
| 6.7 | 2.07 | 13.9 | 47 | COCCOC1CCCN(S(=O)(=O)C[C@H]2CC[C@@H](N(C)c3c(C#N)cnc4[nH]ccc34)C2)C1 (stereo partly drawn) [Compound H70] |  |  |  |  |  |  |  | 0.048 | 1.53 |
|  |  |  |  | CC[C@@H]1CC(NS(=O)(=O)c2cccc3nonc23)C[C@@H]1Nc1c(C#N)cnc2[nH]ccc12 (stereo partly drawn) [Compound H58, N-(3-((5-cyano-1H-pyrrolo[2,3-b]pyridin-4-yl)amino)-4-ethylcyclopentyl)benzo[c][1,2,5] oxadiazole-4-sulfamide] |  |  |  |  |  |  |  | 0.041 | 0.98 |
| 8.21 | 1.81 | 14.9 | 258 | CC[C@@H]1CN(C(=O)NCC(F)(F)F)C[C@@H]1Nc1c(C(F)(F)F)cnc2[nH]ccc12 (relative stereo) [Compound H92, (cis)-3-ethyl-N-(2,2,2-trifluoroethyl)-4-((5-(trifluoromethyl)-1H-pyrrolo[2,3-b]pyridin-4-yl)amino)pyrrolidin-1-carboxamide] |  |  |  |  |  |  |  | 0.027 | 0.91 |
| 2.4 | 8.33 | 20 | 125 | COc1noc(NC(=O)N2C[C@H]3C[C@H](N(C)c4c(C#N)cnc5[nH]ccc45)C[C@H]3C2)n1 [Compound H43, (3aR,5s,6aS)-5-((5-cyano-1H-pyrrolo[2,3-b]pyridin-4-yl)(methyl)amino)-N-(3-methoxy-1,2,4-oxadiazole-5-yl)hexahydrocyclopentadiene[c]pyrrole-2(1H)-carboxamide] |  |  |  |  |  |  |  | 0.043 | 1.44 |
| 2.6 | 6.00 | 15.6 | 144 | C[C@@H]1CN(C(=O)NCC(F)(F)F)C[C@@H]1Nc1c(C#N)cnc2[nH]ccc12 [Compound H40] |  |  |  |  |  |  |  | 0.036 | 1.24 |
| 2.86 | 7.69 | 22 | 133 | CC[C@@H]1CN(C(=O)CC(F)(F)F)C[C@@H]1N(C)c1c(C#N)cnc2[nH]ccc12 (relative stereo) [Compound H03, (cis)-4-{[4-ethyl-1-(3,3,3-trifluoropropionyl)pyrrolidin-3-yl]-methyl-amino}-1H-pyrrolo[2,3-b]pyridin-5-carbonitrile] |  |  |  |  |  |  |  | 0.027 | 0.76 |
| 2.6 | 6.92 | 18 | 101 | CN(c1c(C#N)cnc2[nH]ccc12)[C@H]1C[C@@H]2CN(C(=O)Nc3nc(C4CC4)ns3)C[C@@H]2C1 [Compound H26, (3aR,5s,6aS)-5-((5-cyano-1H-pyrrolo[2,3-b]pyridin-4-yl)(methyl)amino)-N-(3-cyclopropyl-1,2,4-thiadiazole-5-yl)hexahydrocyclopentadiene[c]pyrrole-2(1H)-carboxamide] |  |  |  |  |  |  |  | 0.027 | 1.98 |
| 0.39 | 7.69 | 3 | 63 | CCc1nsc(NC(=O)N2C[C@H]3C[C@H](N(C)c4c(C#N)cnc5[nH]ccc45)C[C@H]3C2)n1 [Compound H08, (3aR,5s,6aS)-4-({2-[(3-ethyl-1,2,4-thiadiazole-5-yl)carbamoyl]-hexahydrocyclopenta[c]pyrrole-5-yl}-methyl-amino)-1H-pyrrolo[2,3-b]pyridin-5-carbonitrile] |  |  |  |  |  |  |  | 0.026 | 1.3 |
|  |  |  |  | N#Cc1cnc2[nH]ccc2c1N[C@H]1C[C@@H](NS(=O)(=O)c2cccc3nonc23)C1 [Compound H19, (cis)-4-{[3-(benzo[c][1,2,5]oxadiazole-4-sulfonamido)-cyclobutyl-1-yl]-amino}-1H-pyrrolo[2,3-b]pyridin-5-carbonitrile] |  |  |  |  |  |  |  | 0.024 | 2.3 |
| 0.65 |  | 5.7 | 40 | CN(c1c(C#N)cnc2[nH]ccc12)[C@H]1C[C@@H](NS(=O)(=O)c2cccc3nonc23)C1 [Compound H18, (cis)-4-{[3-(benzo[c][1,2,5]oxadiazole-4-sulfonamido)-cyclobutyl-1-yl]-methyl-amino}-1H-pyrrolo[2,3-b]pyridin-5-carbonitrile] |  |  |  |  |  |  |  | 0.04 | 1.56 |
|  |  |  |  | CNc1nsc(NC(=O)N2C[C@H]3C[C@H](N(C)c4c(C#N)cnc5[nH]ccc45)C[C@H]3C2)n1 [Compound H41, (3aR,5s,6aS)-5-((5-cyano-1H-pyrrolo[2,3-b]pyridin-4-yl)(methyl)amino)-N-(3-(methylamino)-1,2,4-thiadiazole-5-yl)hexahydrocyclopentadiene[c]pyrrole-2(1H)-carboxamide] |  |  |  |  |  |  |  | 0.055 | 1.64 |
| 5.47 | 2.86 | 15.7 | 48 | CC[C@@H]1CN(C(=O)NC(C)C(C)C)C[C@@H]1Nc1c(C#N)cnc2[nH]ccc12 (relative stereo) [Compound H85, (cis)-3-((5-cyano-1H-pyrrolo[2,3-b]pyridin-4-yl)amino)-4-ethyl-N-(3-methylbutane-2-yl) pyrrolidin-1-carboxamide] |  |  |  |  |  |  |  | 0.032 | 1.47 |
| 5.8 | 2.76 | 16 | 40 | CN(c1c(C#N)cnc2[nH]ccc12)[C@H]1CC[C@H](CS(=O)(=O)N2CCC(C)(O)C2)CC1 (stereo partly drawn) [Compound H62] |  |  |  |  |  |  |  | 0.029 | 1.32 |
| 4.65 |  | 33 | 137 | COc1nsc(NC(=O)N2C[C@H]3C[C@H](Nc4c(C(F)(F)F)cnc5[nH]ccc45)C[C@H]3C2)n1 [Compound H50, (3aR,5s,6aS)-5-((5-trifluoromethyl-1H-pyrrolo[2,3-b]pyridin-4-yl)amino)-N-(3-methoxy-1,2,4-thiadiazole-5-yl)hexahydrocyclopentadiene[c]pyrrole-2(1H)-carboxamide] |  |  |  |  |  |  |  | 0.034 | 0.85 |
|  |  |  |  | N#Cc1cnc2[nH]ccc2c1NC1CCN(S(=O)(=O)c2cccc(C(F)(F)F)c2)CC1 [Compound H34] |  |  |  |  |  |  |  | 0.044 | 1.54 |
|  |  |  |  | CC[C@@H]1CN(C(=O)NCC(F)(F)F)CC1N(C)c1c(C#N)cnc2[nH]ccc12 (stereo partly drawn) [Compound H02] |  |  |  |  |  |  |  | 0.48 | 1.34 |
